This note sets out measurements from article PMC9370283, “New Quinoxaline-Based Derivatives as PARP-1 Inhibitors: Design, Synthesis, Antiproliferative, and Computational Studies” (Molecules, 2022).

Data set [1] deals with MDA-MB-436 cells. As to the kind of experiment: Annexin V-FITC/PI apoptosis assay, flow cytometry. The settings on record: IC50 concentration, 48 h.
Excerpt: medium was used as a negative control.
(§1) Mean net fluorescent intensities (NFI) were quantified.
For data set [2], the system named is MDA-MB-436 cells. Put plainly: cell cycle analysis, PI staining, flow cytometry. The settings on record: IC50 concentration 2.57 µM, 48 h.
Excerpt: medium was used as a negative control.
as §1
The subject of a further data set is WI-38. As to the kind of experiment: cytotoxicity against normal cells, MTT assay, WI-38. It counts as cell-based. The settings on record: Homo sapiens, normal cell line, read-out: IC50 (mean ± SEM) WI-38. The protocol:
It has been reported that the frequency and severity of the side effects on normal healthy cells at therapeutic levels are deemed to be critical factors that distinguish different anticancer drugs from each other. […]
to the wells designated as “Blank”. The amount of PARP-1 required for the assay was then calculated. The reaction was initiated by adding 20 µL of diluted PARP-1 en zy me to the wells designated “Positive Control” and “Test Inhibitor Control”. The strip wells were incubated at room temperature for 1 hou r. The strip wells were then wash ed three times with 200 µL of PBST buffer.
Then, 50 µL of 50 times diluted Streptavidin-HRP with blocking buffer was added to each well, and the strips were further incubated at room temperature for 30 min. After washing the wells three times with 200 µL of PBST buffer, HRP colorimetric substrate was added to each well, and the plate was incubated at room temperature until a blue color was developed in the positive control well. Then, the reaction was quenched with 100 µL per well of 2 M sulfuric acid. Carrier solvent (DMSO 5%, v/v) was used as a negative control. All compounds including Ol ap arib were t ested at 5 concentrations (100, 10, 1, 0.1, and 0.01 µM). The optical density (OD) of each well was measured spectrophotometrically at 450 nm with an ELISA microplate reader (ChroMate-4300, FL, USA). The IC50 values were calculated according to the equation for Boltzmann sigmoidal concentration-response curves using the nonlin ear regression fitting model (GraphPad Prism Version 8). All assays were performed in triplicate in 3 repeated experiments. The obtained data are presented as means standard error of the means from 3 independent repeats (n = 3).
4.3.In vitro anticancer screening
The cell lines were purchased from the American Type Culture collection as follows:
Breast Cancer cell lines (MDA-MB-436) and WI38. Cytotoxic activity screening was performed using MTT assay. Exponentially, cells were placed in 10^4 cells/ well for 24 h, and then add fresh med ium containing different concen trations of the tested sample. Serial two-fold dilutions of the tested sample were added using a multichannel pipette. Moreover, all cells were cultivated at 37 °C, with 5% CO2 and 95% humidity. Also, incubation of control cells occurred at 3 7 ° C . […] Rinse the wells using water until no stain. After that, add 30% g lacial acetic acid to all wells with shaking plates on a Microplate reader (TECAN, Inc.) to measure the absorbance, using a test wavelength of 490 nm. Besides, compare the treated samples with the control cell. The cytotoxicity was estimated by IC50 in (μg /mL), the concentration that inhibits 50% of the growth of the examined cell.
For orientation: Tetrazolium assays rely on reduction of a dye to a coloured formazan, in cell work by metabolically active cells.

The next data set concerns the target T1, PARP-1 (Homo sapiens, UniProt P09874).
T1 construct: purchased BPS Bioscience 80580
Put plainly: colorimetric 96-well PARP-1 assay kit (BPS Bioscience). It counts as biochemical.

The test system of data set [3] is MDA-MB-436 cells. Put plainly: Cyto-ID autophagy assay, flow cytometry. The settings on record: IC50 value of compound, 24 h. On the technique in general: A flow cytometer gives signals particle by particle.
Excerpt: medium was used as a negative control.
as §1
For the next data set, the system named is MDA-MB-436. Put plainly: in vitro cytotoxicity, MTT assay, MDA-MB-436. The settings on record: for % viability MDA-MB-436: MTT lab report.

As a reminder, the IC50 is the midpoint of a concentration-inhibition curve.

T1 sequence (P09874 whole entry): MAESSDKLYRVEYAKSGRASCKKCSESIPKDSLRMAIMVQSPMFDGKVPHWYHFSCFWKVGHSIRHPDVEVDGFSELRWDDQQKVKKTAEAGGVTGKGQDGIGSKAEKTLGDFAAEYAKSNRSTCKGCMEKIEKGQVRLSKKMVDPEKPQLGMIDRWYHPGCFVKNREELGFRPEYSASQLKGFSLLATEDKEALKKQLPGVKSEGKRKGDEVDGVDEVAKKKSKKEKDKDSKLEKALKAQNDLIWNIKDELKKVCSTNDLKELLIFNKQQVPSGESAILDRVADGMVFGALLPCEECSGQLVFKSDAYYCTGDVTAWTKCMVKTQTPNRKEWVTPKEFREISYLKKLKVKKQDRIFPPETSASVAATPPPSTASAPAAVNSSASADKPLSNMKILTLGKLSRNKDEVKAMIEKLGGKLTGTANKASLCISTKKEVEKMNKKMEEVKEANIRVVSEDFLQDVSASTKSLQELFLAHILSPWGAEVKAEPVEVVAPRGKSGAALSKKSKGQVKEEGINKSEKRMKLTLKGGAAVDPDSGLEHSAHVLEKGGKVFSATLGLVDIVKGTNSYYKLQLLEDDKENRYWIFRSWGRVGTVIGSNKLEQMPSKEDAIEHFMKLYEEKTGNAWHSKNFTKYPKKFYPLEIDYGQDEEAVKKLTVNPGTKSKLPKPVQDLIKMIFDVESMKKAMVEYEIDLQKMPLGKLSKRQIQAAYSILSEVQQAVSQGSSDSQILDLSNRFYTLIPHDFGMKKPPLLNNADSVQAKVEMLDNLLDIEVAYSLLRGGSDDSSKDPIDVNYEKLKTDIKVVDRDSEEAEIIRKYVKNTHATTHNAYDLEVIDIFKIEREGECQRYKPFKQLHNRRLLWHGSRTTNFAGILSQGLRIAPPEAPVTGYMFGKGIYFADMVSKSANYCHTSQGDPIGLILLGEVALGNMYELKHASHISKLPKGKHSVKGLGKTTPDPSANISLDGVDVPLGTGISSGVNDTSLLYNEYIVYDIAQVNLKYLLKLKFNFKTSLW

For `Cc1cc(C)n(S(=O)(=O)c2ccc3[nH]c(=O)c(=O)[nH]c3c2)n1` [Compound 5, 6-((3,5-Dimethyl-1H-pyrazol-1-yl)sulfonyl)-1,4-dihydroquinoxaline-2,3-dione], the “normal intact cells (Q2-3)” value in the data set with MDA-MB-436 cells [1] stood at 96.98%. The “early apoptotic cell population (Q2-4)” value in the data set with MDA-MB-436 cells [1] (control 0.14%) is reported as 0.27%. Also, in the data set on MDA-MB-436 cells [1] (control 0.98%), the “late apoptotic cell population (Q2-2)” value was determined as 1.02%. In the data set on MDA-MB-436 cells [1] (control 1.11%), the “necrotic cell population (Q2-1)” value turned out to be 1.72%. Also, in the data set on MDA-MB-436 cells [2] (control 1.76%), the “cell number in sub-G1 stage” value is 1.66%. Further, the “percentage of cells in G2 stage” value in the data set with MDA-MB-436 cells [2] (control 25.12%) is recorded as 30.39%. For the same molecule, the “cell distribution in G1 phase” value in the data set on MDA-MB-436 cells [2] (control 51.96%) worked out at 40.89%. Besides, the IC50 in the data set with WI-38 came out at 81.7 ± 1.7 µM; on PARP-1 (read-out: IC50 (mean ± SEM) PARP-1), 0.00305 ± 0.00016 µM; in the data set with MDA-MB-436 (read-out: IC50 (mean ± SEM) MDA-MB-436, mutant BRCA1 breast cancer cells, MTT), 2.57 ± 0.15 µM. Besides, the “fold higher PARP-1 inhibitory activity than Olaparib” value at PARP-1 (ratio of IC50 values) is reported as 1.5 fold. For the same molecule, in the data set with MDA-MB-436 cells [3], the “increase of autophagic cell death” value is 68.65%. Further, the SI with MDA-MB-436 (MDA-MB-436, matches IC50 WI-38 / IC50 MDA-MB-436) turned out to be 31.77. The “% viability MDA-MB-436” value in the data set with MDA-MB-436 (log conc. 0.193 (1.6uM)) was 53.46%; in the data set on MDA-MB-436 (log conc. 0.796 (6.3uM)), 45.17%; in the data set on MDA-MB-436 (log conc. 1.398 (25uM)), 37.05%; in the data set on MDA-MB-436 (log conc. 2 (100uM)) it was 28.36%; with MDA-MB-436 (log conc. -0.409 (0.4uM)) it was 60.26%. Further, the “times more potent than the reference drug (antiproliferative, MDA-MB-436)” value in the data set with MDA-MB-436 (versus Olaparib) is reported as “approximately 4 times”.
